From patent publication US11022604B2, “Dock derived compound against laminin receptor (37 LR) and uses thereof” (Purdue Research Foundation, priority 2017, dated 2021) come the findings set out here.

Holding throughout (assay type): cell-based
Assay [1] relates to endothelial vessel formation in vitro (tube formation). Put plainly: Angiogenesis tube formation assay (derivatives). The conditions noted are these: 30 uM, 7 hour incubation. How it is done:
FIGS. 28A-28F Representative images of tube formation. 7 hour incubation period with respective compounds: FIG. 28A, DMSO; FIG. 28B DBGII-3, 30 uM; FIG. 28C, EGCG, 30 uM; FIG. 28 D, DBGII-5, 30 uM, FIG. 28E, C3, 30 uM; FIG. 28 F, DBGII-9, 30 uM.
An angiogenesis tube formation assay was used to characterize the impact of compounds against endothelial vessel formation in vitro (i.e., tube formation).

Assay [2] has as its system PC3 prostate cancer cell lines. Put plainly: CCK8 cell viability screen of derivatives. As to conditions: PC3, CCK8, day three. How it is done: FIGS. 22A-22B. Screen of all the derivatives made in Example 17 in CCK8 cell viability assay with PC3 prostate cancer cell lines at day 3 (FIG. 22A) and day 5 (FIG. 22B).
FIG. 23. All derivatives made in Example 17 are tested for cell inhibition percentage at day 3.
CCK8 cell viability assay with PC3 prostate cancer cell lines is conducted and cell viability on day 3, day 5 are examined, see FIGS. 22A-22B. Additionally, the cell inhibition percentage for compounds DBG1-191, 1-200, 02-09, 2-14, among others were further characterized in CCK8 assay against PC3.

Assay [3] deals with PC3 prostate cancer cell line. Put plainly: Cell Titer Glo cell viability assay. The text has this:
In this series of cell viability experiments, we used the highly sensitive Cell Titer Glo reagents from Promega in PC3 prostate cancer cell line. We compared the parental compound C3 effect on reducing cell viability with the best derivative compound, DBG-02-09.

Another assay relates to PC-3 cells. Put plainly: PC-3 cell viability response to recombinant PEDF (CCK-8). As to conditions: 48 hours. The method, then:
FIG. 13. PC-3 Cell Viability Response To Recombinant PEDF PC-3 cells were treated with 0.1 to 0.6 μM rPEDF for 48 hours and cell viability was measured using the CCK-8 assay (n=3, mean±SEM). A one-way ANOVA was used for statistical analysis (n.s. p=0.11) however the linear trend was significant (post test for linear trend, p<0.05).
Recombinant PEDF (BioProductsMD) was resuspended in PEDF Buffer (0.2 M NaCl, 20 mM sodium phosphate, and 1 mM DTT; ph 6.4). 1,500 cells per well were seeded in a clear 96-well plate in RPMI-1640 with 1% anti-anti and 10% FBS and allowed to grow overnight. A 0-hour recording was taken using CCK-8 and compared to a 48-hour reading after incubating PC-3 cells with recombinant PEDF (0.1 μM to […]) in RPMI-1640 with 1% anti-anti and 1% FBS. […] The adenovirus was administered intravenously (2×10^8 pfu/i.v.) 3 days following subcutaneous TC2-Ras cell implantation (10^4 or 10^5, without mAR (−mAR control) or with mAR (+mAR) in C57/BL6 male mice. Mice were injected intraperitoneally with 150 mg/kg Luciferin (10-20 min incubation) followed by a 5 min signal acquisition using an IVIS 100 imager (Caliper/PerkinElmer, Downers Grove, Ill.) and analyzed with LivingImage 3.1 software (Caliper/PerkinElmer), with signals reported as photons per second per […] per steridian (p/sec/cm^2/sr). Statistics. Statistical analysis was performed using GraphPad Prism 6. […]

As for `O=C(c1ccncc1Oc1ccccc1)N1CCN(C2c3ccccc3-c3ccccc32)CC1` [DBGII-03], the tube formation entry in assay [1] is on record as “Thinning of tubes formed”.
As for `O=C(c1ccccc1)N1CCN(C2c3ccccc3-c3ccccc32)CC1` [DBGII-05], in assay [1], the tube formation result is “Thinning of tubes formed”.
As to `CN(C)CCOc1ccccc1C(=O)N1CCN(C2c3ccccc3-c3ccccc32)CC1` [DBGII-09], the “cell inhibition percentage (rank among derivatives)” value in assay [2] is listed as “highest inhibition”. The tube formation entry in assay [1] is recorded as “Thinning of tubes formed”. 7.6 ± 0.52 µM corresponded to half-maximal inhibition in assay [3] (Homo sapiens, PC-3, PC3 cells) (IC50). For the same molecule, the “reduction of IC50 relative to parental compound C3” value in assay [3] (PC3 cells) is listed as 2.2 fold.

B1: recombinant PEDF: Recombinant pigment epithelium-derived factor (BioProductsMD), secreted glycoprotein (protein, UniProt P36955 20-418, looked up)
Pigment epithelium-derived …: QNPASPPEEGSPDPDSTGALVEEEDPFFKVPVNKLAAAVSNFGYDLYRVRSSTSPTTNVLLSPLSVATALSALSLGAEQRTESIIHRALYYDLISSPDIHGTYKELLDTVTAPQKNLKSASRIVFEKKLRIKSSFVAPLEKSYGTRPRVLTGNPRLDLQEINNWVQAQMKGKLARSTKEIPDEISILLLGVAHFKGQWVTKFDSRKTSLEDFYLDEERTVRVPMMSDPKAVLRYGLDSDLSCKIAQLPLTGSMSIIFFLPLKVTQNLTLIEESLTSEFIHDIDRELKTVQAVLTVPKLKLSYEGEVTKSLQEMKLQSLFDSPDFSKITGKPIKLTQVEHRAGFEWNEDGAGTTPSPGLQPAHLTFPLDYHLNQPFIFVLRDTDTGALLFIGKILDPRGP
For the molecule B1, in the assay on PC-3 cells, the “dose/response relationship for survival of PC-3 cells” value was “unable to demonstrate a significant dose/response relationship”.
